# Experimental data from PubChem BioAssay AID1918998 (Molecular Pharmacology Branch, DTP, NCI, 2023).
# Test system: 521955-158-R2-J5-PDC complex spheroid growth
# Experiment: Anticancer human tumor 521955-158-R2-J5-PDC patient-derived pancreatic carcinoma cell line growth inhibition [AhR]
# Conditions: for IC50: curve of first compound; for viability, T/C: stronger effect = lower value
# Outline: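 Complex tumor spheroids co-cultured with HUVEC and human MSC stroma; AhR antagonists tested in combination with standard-of-care and investigational agents. Top concentration at or near clinical Cmax (else 10 microM), half-log dilutions; growth expressed as percent test/control.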
# [1] = second compound 0.1 µM, first compound 0.0316 µM
# [2] = second compound 0.1 µM, first compound 0.1 µM
# [3] = second compound 0.1 µM, first compound 0.316 µM
# [4] = second compound 0.1 µM, first compound 1 µM
# [5] = second compound 0.1 µM, first compound 3.16 µM
# [6] = second compound 0.1 µM, first compound 10 µM
# [7] = second compound 0.316 µM, first compound 0.0316 µM
# [8] = second compound 0.316 µM, first compound 0.1 µM
# [9] = second compound 0.316 µM, first compound 0.316 µM
# [10] = second compound 0.316 µM, first compound 1 µM
# [11] = second compound 0.316 µM, first compound 3.16 µM
# [12] = second compound 0.316 µM, first compound 10 µM
# [13] = second compound 1 µM, first compound 0.0316 µM
# [14] = second compound 1 µM, first compound 0.1 µM
# [15] = second compound 1 µM, first compound 0.316 µM
# [16] = second compound 1 µM, first compound 1 µM
# [17] = second compound 1 µM, first compound 3.16 µM
# [18] = second compound 1 µM, first compound 10 µM
# [19] = second compound 3.16 µM, first compound 0.0316 µM
# [20] = second compound 3.16 µM, first compound 0.1 µM
# [21] = second compound 3.16 µM, first compound 0.316 µM
# [22] = second compound 3.16 µM, first compound 1 µM
# [23] = second compound 3.16 µM, first compound 3.16 µM
# [24] = second compound 3.16 µM, first compound 10 µM
# [25] = second compound 10 µM, first compound 0.0316 µM
# [26] = second compound 10 µM, first compound 0.1 µM
# [27] = second compound 10 µM, first compound 0.316 µM
# [28] = second compound 10 µM, first compound 1 µM
# [29] = second compound 10 µM, first compound 3.16 µM
# [30] = second compound 10 µM, first compound 10 µM
# 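For viability, T/C in this document: spheroids mix tumor cells with HUVEC endothelium and human MSC stroma; luminescence taken as viability surrogate after a week of drug exposure.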
smiles,measurement,setting,value
CC(C)CC(NC(=O)C(Cc1ccccc1)NC(=O)c1cnccn1)B(O)O (stereo not given) + Cc1ccccc1N=Nc1ccc(NC(=O)c2ccnn2C)c(C)c1,IC50,second compound 0.1 µM,16.1 nM
same,IC50,second compound 0.316 µM,16.3 nM
same,IC50,second compound 1 µM,17.3 nM
same,IC50,second compound 3.16 µM,15.1 nM
same,IC50,second compound 10 µM,8.76 nM
same,"viability, T/C","second compound 0.1 µM, first compound 0.000949 µM",91.3%
same,"viability, T/C","second compound 0.1 µM, first compound 0.003 µM",77.6%
same,"viability, T/C","second compound 0.1 µM, first compound 0.00949 µM",105%
same,"viability, T/C","second compound 0.1 µM, first compound 0.03 µM",0.49%
same,"viability, T/C","second compound 0.1 µM, first compound 0.0949 µM",0.24%
same,"viability, T/C","second compound 0.1 µM, first compound 0.3 µM",1.83%
same,"viability, T/C","second compound 0.316 µM, first compound 0.000949 µM",95.3%
same,"viability, T/C","second compound 0.316 µM, first compound 0.003 µM",89.4%
same,"viability, T/C","second compound 0.316 µM, first compound 0.00949 µM",97.4%
same,"viability, T/C","second compound 0.316 µM, first compound 0.03 µM",0.67%
same,"viability, T/C","second compound 0.316 µM, first compound 0.0949 µM",0.36%
same,"viability, T/C","second compound 0.316 µM, first compound 0.3 µM",0.41%
same,"viability, T/C","second compound 1 µM, first compound 0.000949 µM",127%
same,"viability, T/C","second compound 1 µM, first compound 0.003 µM",99.8%
same,"viability, T/C","second compound 1 µM, first compound 0.00949 µM",101%
same,"viability, T/C","second compound 1 µM, first compound 0.03 µM",2.56%
same,"viability, T/C","second compound 1 µM, first compound 0.0949 µM",2.56%
same,"viability, T/C","second compound 1 µM, first compound 0.3 µM",0.41%
same,"viability, T/C","second compound 3.16 µM, first compound 0.000949 µM",146%
same,"viability, T/C","second compound 3.16 µM, first compound 0.003 µM",119%
same,"viability, T/C","second compound 3.16 µM, first compound 0.00949 µM",82.3%
same,"viability, T/C","second compound 3.16 µM, first compound 0.03 µM",1.3%
same,"viability, T/C","second compound 3.16 µM, first compound 0.0949 µM",0.26%
same,"viability, T/C","second compound 3.16 µM, first compound 0.3 µM",0.34%
same,"viability, T/C","second compound 10 µM, first compound 0.000949 µM",142%
same,"viability, T/C","second compound 10 µM, first compound 0.003 µM",153%
same,"viability, T/C","second compound 10 µM, first compound 0.00949 µM",42.7%
same,"viability, T/C","second compound 10 µM, first compound 0.03 µM",1.3%
same,"viability, T/C","second compound 10 µM, first compound 0.0949 µM",3.29%
same,"viability, T/C","second compound 10 µM, first compound 0.3 µM",0.52%
COc1cc(Nc2ncc3c(n2)-c2ccc(Cl)cc2C(c2c(F)cccc2OC)=NC3)ccc1C(=O)O + Cc1ccccc1N=Nc1ccc(NC(=O)c2ccnn2C)c(C)c1,IC50,second compound 0.1 µM,> 10000 nM
same,IC50,second compound 0.316 µM,> 10000 nM
same,IC50,second compound 1 µM,> 10000 nM
same,IC50,second compound 3.16 µM,> 10000 nM
same,IC50,second compound 10 µM,> 10000 nM
same,"viability, T/C",[1],81.3%
same,"viability, T/C",[2],76%
same,"viability, T/C",[3],69.8%
same,"viability, T/C",[4],68.1%
same,"viability, T/C",[5],63.8%
same,"viability, T/C",[6],48.5%
same,"viability, T/C",[7],89.5%
same,"viability, T/C",[8],79.9%
same,"viability, T/C",[9],72.4%
same,"viability, T/C",[10],60.2%
same,"viability, T/C",[11],71.4%
same,"viability, T/C",[12],55.4%
same,"viability, T/C",[13],109%
same,"viability, T/C",[14],69.8%
same,"viability, T/C",[15],74.3%
same,"viability, T/C",[16],58.9%
same,"viability, T/C",[17],62.1%
same,"viability, T/C",[18],53.9%
same,"viability, T/C",[19],98.6%
same,"viability, T/C",[20],77%
same,"viability, T/C",[21],68.3%
same,"viability, T/C",[22],74.2%
same,"viability, T/C",[23],74.7%
same,"viability, T/C",[24],71.4%
same,"viability, T/C",[25],122%
same,"viability, T/C",[26],96.1%
same,"viability, T/C",[27],94.6%
same,"viability, T/C",[28],88.5%
same,"viability, T/C",[29],83.4%
same,"viability, T/C",[30],90.7%
NS(=O)(=O)OCC1CC(n2ccc3c(NC4CCc5ccccc54)ncnc32)CC1O (stereo not given) + Cc1ccccc1N=Nc1ccc(NC(=O)c2ccnn2C)c(C)c1,IC50,second compound 0.1 µM,1360 nM
same,IC50,second compound 0.316 µM,1220 nM
same,IC50,second compound 1 µM,941 nM
same,IC50,second compound 3.16 µM,821 nM
same,IC50,second compound 10 µM,343 nM
same,"viability, T/C",[1],118%
same,"viability, T/C",[2],115%
same,"viability, T/C",[3],102%
same,"viability, T/C",[4],56.7%
same,"viability, T/C",[5],30.4%
same,"viability, T/C",[6],20.8%
same,"viability, T/C",[7],111%
same,"viability, T/C",[8],105%
same,"viability, T/C",[9],87.5%
same,"viability, T/C",[10],53.5%
same,"viability, T/C",[11],30.9%
same,"viability, T/C",[12],21.9%
same,"viability, T/C",[13],114%
same,"viability, T/C",[14],111%
same,"viability, T/C",[15],88.3%
same,"viability, T/C",[16],47.6%
same,"viability, T/C",[17],29.6%
same,"viability, T/C",[18],23.7%
same,"viability, T/C",[19],137%
same,"viability, T/C",[20],110%
same,"viability, T/C",[21],77.6%
same,"viability, T/C",[22],45.2%
same,"viability, T/C",[23],23.7%
same,"viability, T/C",[24],21.8%
same,"viability, T/C",[25],108%
same,"viability, T/C",[26],91.2%
same,"viability, T/C",[27],50.8%
same,"viability, T/C",[28],32.1%
same,"viability, T/C",[29],25.2%
same,"viability, T/C",[30],25.6%
O=C(C=Cc1cccc(S(=O)(=O)Nc2ccccc2)c1)NO + Cc1ccccc1N=Nc1ccc(NC(=O)c2ccnn2C)c(C)c1,IC50,second compound 0.1 µM,> 10000 nM
same,IC50,second compound 0.316 µM,6540 nM
same,IC50,second compound 1 µM,> 10000 nM
same,IC50,second compound 3.16 µM,2920 nM
same,IC50,second compound 10 µM,3550 nM
same,"viability, T/C",[1],95.4%
same,"viability, T/C",[2],104%
same,"viability, T/C",[3],121%
same,"viability, T/C",[4],96%
same,"viability, T/C",[5],72.6%
same,"viability, T/C",[6],52%
same,"viability, T/C",[7],102%
same,"viability, T/C",[8],115%
same,"viability, T/C",[9],128%
same,"viability, T/C",[10],89.2%
same,"viability, T/C",[11],65.5%
same,"viability, T/C",[12],41.5%
same,"viability, T/C",[13],105%
same,"viability, T/C",[14],136%
same,"viability, T/C",[15],136%
same,"viability, T/C",[16],102%
same,"viability, T/C",[17],59.5%
same,"viability, T/C",[18],48.9%
same,"viability, T/C",[19],105%
same,"viability, T/C",[20],116%
same,"viability, T/C",[21],154%
same,"viability, T/C",[22],93.7%
same,"viability, T/C",[23],54.2%
same,"viability, T/C",[24],39.4%
same,"viability, T/C",[25],147%
same,"viability, T/C",[26],146%
same,"viability, T/C",[27],129%
same,"viability, T/C",[28],87.9%
same,"viability, T/C",[29],56.6%
same,"viability, T/C",[30],24.9%
